# Measurements: patent US7091202B2, “4-arylspirocycloalkyl-2-aminopyrimidine carboxamide KCNQ potassium channel modulators” (Bristol-Myers Squibb Company, priority 2004, dated 2006)
# pEC50: −log10 of the molar value.
# Target: T1, hQ23 (HEK-293 cell line stably transfected with one of the members of the KCNQ family) (Homo sapiens, UniProt O43525+O43526)
# T1 construct: expressed in transfected cells; host or cells: HEK-293, stably transfected
# Test: Thallium flux assay for KCNQ channel blockers (FLIPR, BTC dye)
# Format: cell-based
# Settings: hQ23 cells, thallium flux assay
# How it was run: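 HEK-293 cells stably expressing a KCNQ member, loaded with BTC-AM (2 μM) in chloride-free buffer, pH 7.3; compounds added at 1% DMSO, then Tl2SO4 stimulus on FLIPR (488/540 nm, 60 s). Minimal active concentration set at ≥4 SD above negative control; IC50 from 10-point 1:3 series, single-site logistic fit versus the positive-control blocker.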
# T1 sequence (O43526 whole entry): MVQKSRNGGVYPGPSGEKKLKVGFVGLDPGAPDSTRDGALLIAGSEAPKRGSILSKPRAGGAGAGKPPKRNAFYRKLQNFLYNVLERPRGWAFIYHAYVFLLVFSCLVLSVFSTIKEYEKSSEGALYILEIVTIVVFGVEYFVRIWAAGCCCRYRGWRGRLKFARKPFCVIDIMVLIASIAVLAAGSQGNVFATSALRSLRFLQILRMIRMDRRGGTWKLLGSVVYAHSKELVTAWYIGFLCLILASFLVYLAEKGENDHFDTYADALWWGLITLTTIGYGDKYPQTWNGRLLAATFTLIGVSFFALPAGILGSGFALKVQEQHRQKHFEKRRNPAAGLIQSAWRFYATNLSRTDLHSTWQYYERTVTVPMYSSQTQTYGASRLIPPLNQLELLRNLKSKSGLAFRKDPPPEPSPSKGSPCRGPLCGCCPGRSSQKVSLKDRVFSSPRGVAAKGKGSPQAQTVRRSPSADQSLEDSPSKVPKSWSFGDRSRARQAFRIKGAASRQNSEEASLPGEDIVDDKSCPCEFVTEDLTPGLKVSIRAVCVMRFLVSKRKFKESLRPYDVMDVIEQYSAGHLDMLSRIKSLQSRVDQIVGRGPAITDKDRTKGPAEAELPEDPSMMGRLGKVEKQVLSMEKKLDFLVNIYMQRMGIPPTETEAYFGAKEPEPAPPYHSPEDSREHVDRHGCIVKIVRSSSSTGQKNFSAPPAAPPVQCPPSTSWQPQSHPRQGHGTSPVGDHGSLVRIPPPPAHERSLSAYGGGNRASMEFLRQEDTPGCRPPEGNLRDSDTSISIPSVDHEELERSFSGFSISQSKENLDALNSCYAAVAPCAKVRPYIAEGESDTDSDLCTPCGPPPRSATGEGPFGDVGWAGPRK
# T1 sequence (O43525 whole entry): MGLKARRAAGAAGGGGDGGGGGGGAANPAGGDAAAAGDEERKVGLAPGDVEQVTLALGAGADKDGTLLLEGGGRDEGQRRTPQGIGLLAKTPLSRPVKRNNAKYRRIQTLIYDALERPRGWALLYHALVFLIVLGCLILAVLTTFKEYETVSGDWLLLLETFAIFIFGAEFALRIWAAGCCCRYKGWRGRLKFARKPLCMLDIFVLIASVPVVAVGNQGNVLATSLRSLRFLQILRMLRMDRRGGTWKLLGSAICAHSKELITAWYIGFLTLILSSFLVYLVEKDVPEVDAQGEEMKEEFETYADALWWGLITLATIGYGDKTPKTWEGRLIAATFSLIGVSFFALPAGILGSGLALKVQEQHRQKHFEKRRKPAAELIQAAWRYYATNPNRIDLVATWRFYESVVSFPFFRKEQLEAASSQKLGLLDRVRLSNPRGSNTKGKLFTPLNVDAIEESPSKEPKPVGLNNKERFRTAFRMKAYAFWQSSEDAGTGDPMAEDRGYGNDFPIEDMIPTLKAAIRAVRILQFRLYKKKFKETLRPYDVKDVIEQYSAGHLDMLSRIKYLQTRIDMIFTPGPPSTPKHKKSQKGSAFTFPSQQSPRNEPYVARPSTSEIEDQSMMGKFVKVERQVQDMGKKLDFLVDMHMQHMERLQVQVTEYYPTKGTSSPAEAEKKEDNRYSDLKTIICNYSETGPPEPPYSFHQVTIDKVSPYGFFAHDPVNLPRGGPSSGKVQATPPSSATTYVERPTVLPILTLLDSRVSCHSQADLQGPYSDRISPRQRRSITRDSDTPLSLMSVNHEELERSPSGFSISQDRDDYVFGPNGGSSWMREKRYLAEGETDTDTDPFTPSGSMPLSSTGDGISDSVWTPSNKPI
row,pEC50,Compound
1,6.34,"CCN(Cc1ccccc1)C(=O)c1cnc(NC2CCCC2)nc1C1(c2ccc(F)cc2)CCCC1 [Example 232, 5-pyrimidinecarboxamide, 2-(cyclopentylamino)-N-ethyl-4-[1-(4-fluorophenyl)cyclopentyl]-N-(phenylmethyl)-]"
2,6.36,"O=C(NCc1ccc2c(c1)OCO2)c1cnc(NC2CC2)nc1C1(c2ccc(F)cc2)CCCC1 [Example 233, 5-pyrimidinecarboxamide, N-(1,3-benzodioxol-5-ylmethyl)-2-(cyclopropylamino)-4-[1-(4-fluorophenyl)cyclopentyl]-]"
3,6.63,"CC1CCC(Nc2ncc(C(=O)NCc3ccc4c(c3)OCO4)c(C3(c4ccc(F)cc4)CCCC3)n2)CC1 (stereo not shown) [Example 234, 5-pyrimidinecarboxamide, N-(1,3-benzodioxol-5-ylmethyl)-4-[1-(4-fluorophenyl)cyclopentyl]-2-[(4-methylcyclohexyl)amino]-]"
4,6.67,"O=C(NCc1ccc2c(c1)OCO2)c1cnc(N2CCCC2)nc1C1(c2ccc(F)cc2)CCCC1 [Example 235, 5-pyrimidinecarboxamide, N-(1,3-benzodioxol-5-ylmethyl)-4-[1-(4-fluorophenyl)cyclopentyl]-2-(1-pyrrolidinyl)-]"
5,7.41,"CC1CCCN(c2ncc(C(=O)NCc3ccc4c(c3)OCO4)c(C3(c4ccc(F)cc4)CCCC3)n2)C1 (stereo not shown) [Example 236, 5-pyrimidinecarboxamide, N-(1,3-benzodioxol-5-ylmethyl)-4-[1-(4-fluorophenyl)cyclopentyl]-2-(3-methyl-1-piperidinyl)-]"
6,6.27,"CC1CCN(c2ncc(C(=O)NCc3ccc4c(c3)OCO4)c(C3(c4ccc(F)cc4)CCCC3)n2)CC1 [Example 237, 5-pyrimidinecarboxamide, N-(1,3-benzodioxol-5-ylmethyl)-4-[1-(4-fluorophenyl)cyclopentyl]-2-(4-methyl-1-piperidinyl)-]"
7,6.46,"CCC(C)Nc1ncc(C(=O)NCc2ccc3c(c2)OCO3)c(C2(c3ccc(F)cc3)CCCC2)n1 (stereo not shown) [Example 238, 5-pyrimidinecarboxamide, N-(1,3-benzodioxol-5-ylmethyl)-4-[1-(4-fluorophenyl)cyclopentyl]-2-[(1-methylpropyl)amino]-]"
8,6.10,"CN(C)CCNc1ncc(C(=O)NCc2ccc3c(c2)OCO3)c(C2(c3ccc(F)cc3)CCCC2)n1 [Example 239, 5-pyrimidinecarboxamide, N-(1,3-benzodioxol-5-ylmethyl)-2-[[2-(dimethylamino)ethyl]amino]-4-[1-(4-fluorophenyl)cyclopentyl]-]"
9,6.29,"CC(NC(=O)c1cnc(NC2CC2)nc1C1(c2ccc(F)cc2)CCCC1)c1cccc2ccccc12 (stereo not shown) [Example 240, 5-pyrimidinecarboxamide, 2-(cyclopropylamino)-4-[1-(4-fluorophenyl)cyclopentyl]-N-[1-(1-naphthalenyl)ethyl]-]"
10,8.00,"CC1CCC(Nc2ncc(C(=O)NC(C)c3cccc4ccccc34)c(C3(c4ccc(F)cc4)CCCC3)n2)CC1 (stereo not shown) [Example 241, 5-pyrimidinecarboxamide, 4-[1-(4-fluorophenyl)cyclopentyl]-2-[(4-methylcyclohexyl)amino]-N-[1-(1-naphthalenyl)ethyl]-]"
11,7.47,"CC(NC(=O)c1cnc(N2CCCC2)nc1C1(c2ccc(F)cc2)CCCC1)c1cccc2ccccc12 (stereo not shown) [Example 242, 5-pyrimidinecarboxamide, 4-[1-(4-fluorophenyl)cyclopentyl]-N-[1-(1-naphthalenyl)ethyl]-2-(1-pyrrolidinyl)-]"
12,6.07,"CC(NC(=O)c1cnc(N2CCN(C)CC2)nc1C1(c2ccc(F)cc2)CCCC1)c1cccc2ccccc12 (stereo not shown) [Example 243, 5-pyrimidinecarboxamide, 4-[1-(4-fluorophenyl)cyclopentyl]-2-(4-methyl-1-piperazinyl)-N-[1-(1-naphthalenyl)ethyl]-]"
13,8.00,"CC1CCCN(c2ncc(C(=O)NC(C)c3cccc4ccccc34)c(C3(c4ccc(F)cc4)CCCC3)n2)C1 (stereo not shown) [Example 244, 5-pyrimidinecarboxamide, 4-[1-(4-fluorophenyl)cyclopentyl]-2-(3-methyl-1-piperidinyl)-N-[1-(1-naphthalenyl)ethyl]-]"
